pIC50: −log10 of the molar value.
System: Influenza A/WSN/33-Luciferase virus
Assay: microbe, parasite or virus in culture
Format: cell-based
Settings: A549, 72 h, luciferase signal three days later, read-out: IC50 antiviral activity (Luciferase reporter assay)

Q: `COCCOc1ccc2c(Nc3cccn(C)c3=O)nn(-c3ccc(OC(F)(F)F)cc3)c(=O)c2c1` [Example 137, 7-(2-Methoxyethoxy)-4-[(1-methyl-2-oxo-3-pyridyl)amino]-2-[4-(trifluoromethoxy)phenyl]phthalazin-1-one] was tested. Which pIC50 did it give?
A: 6.87

Q: With `COCCOc1cccc2c(=O)n(-c3ccc(OC(F)(F)F)cc3)nc(Nc3cccn(C)c3=O)c12` [Example 138, 5-(2-Methoxyethoxy)-4-[(1-methyl-2-oxo-3-pyridyl)amino]-2-[4-(trifluoromethoxy)phenyl]phthalazin-1-one] as the molecule, how does the pIC50 read?
A: 6.96

Q: `Cn1cccc(Nc2nn(-c3ccc(OC(F)(F)F)cc3)c(=O)c3cc(C(N)=O)ccc23)c1=O` [Example 139, 1-[(1-Methyl-2-oxo-3-pyridyl)amino]-4-oxo-3-[4-(trifluoromethoxy)phenyl]phthalazine-6-carboxamide] was tested. Which pIC50 did it give?
A: 7.21

Q: How did the pIC50 turn out when `CC(O)c1ccc2c(Nc3cccn(C)c3=O)nn(-c3ccc(OC(F)(F)F)cc3)c(=O)c2c1` (centres unmarked) [Example 140, 7-(1-Hydroxyethyl)-4-[(1-methyl-2-oxo-3-pyridyl)amino]-2-[4-(trifluoromethoxy)phenyl]phthalazin-1-one] was run?
A: 7.49

Q: How did the pIC50 turn out when `Cn1cccc(Nc2nn(-c3ccc(OC(F)(F)F)cc3)c(=O)c3cc(CO)ccc23)c1=O` [Example 141, 7-(hydroxymethyl)-4-[(1-methyl-2-oxo-3-pyridyl)amino]-2-[4-(trifluoromethoxy)phenyl]phthalazin-1-one] was run?
A: 7.92

Q: How did the pIC50 turn out when `Cn1cccc(Nc2nn(-c3ccc(OC(F)(F)F)cc3)c(=O)c3cc(N)ccc23)c1=O` [Example 142, 7-Amino-4-[(1-methyl-2-oxo-3-pyridyl)amino]-2-[4-(trifluoromethoxy)phenyl]phthalazin-1-one] was run?
A: 7.34

Q: How did the pIC50 turn out when `Cn1cccc(Nc2nn(-c3ccc(OC(F)(F)F)cc3)c(=O)c3cc(CN)ccc23)c1=O` [Example 143, 7-(Aminomethyl)-4-[(1-methyl-2-oxo-3-pyridyl)amino]-2-[4-(trifluoromethoxy)phenyl]phthalazin-1-one] was run?
A: 6.57

Q: How did the pIC50 turn out when `CN(C)Cc1ccc2c(Nc3cccn(C)c3=O)nn(-c3ccc(OC(F)(F)F)cc3)c(=O)c2c1` [Example 144, 7-[(Dimethylamino)methyl]-4-[(1-methyl-2-oxo-3-pyridyl)amino]-2-[4-(trifluoromethoxy)phenyl]phthalazin-1-one] was run?
A: 6.20

Q: How did the pIC50 turn out when `CC(O)CN1CCc2c(Nc3cccn(C)c3=O)nn(-c3ccc(OC(F)(F)F)cc3)c(=O)c2C1` (centres unmarked) [Example 145, 6-(2-Hydroxypropyl)-1-[(1-methyl-2-oxo-3-pyridyl)amino]-3-[4-(trifluoromethoxy)phenyl]-7,8-dihydro-5H-pyrido[3,4-d]pyridazin-4-one] was run?
A: 6.89

Q: How did the pIC50 turn out when `Cn1cccc(Nc2nn(-c3ccc(OC(F)(F)F)cc3)c(=O)c3c2CCN(CC(C)(C)O)C3)c1=O` [Example 146, 6-(2-Hydroxy-2-methyl-propyl)-1-[(1-methyl-2-oxo-3-pyridyl)amino]-3-[4-(trifluoromethoxy)phenyl]-7,8-dihydro-5H-pyrido[3,4-d]pyridazin-4-one] was run?
A: 6.78

Q: How did the pIC50 turn out when `Cn1cccc(Nc2nn(-c3ccc(OC(F)(F)F)cc3)c(=O)c3c2CCN(CCO)C3)c1=O` [Example 147, 6-(2-Hydroxyethyl)-1-[(1-methyl-2-oxo-3-pyridyl)amino]-3-[4-(trifluoromethoxy)phenyl]-7,8-dihydro-5H-pyrido[3,4-d]pyridazin-4-one] was run?
A: 7.12

Q: How did the pIC50 turn out when `CC(=O)N1CCc2c(Nc3cccn(C)c3=O)nn(-c3ccc(OC(F)(F)F)cc3)c(=O)c2C1` [Example 148, 6-Acetyl-1-[(1-methyl-2-oxo-3-pyridyl)amino]-3-[4-(trifluoromethoxy)phenyl]-7,8-dihydro-5H-pyrido[3,4-d]pyridazin-4-one] was run?
A: 7.72

Q: With `CC(=O)N1CCc2c(c(Nc3cccn(C)c3=O)nn(-c3ccc(OC(F)(F)F)cc3)c2=O)C1` [Example 149, 6-Acetyl-4-[(1-methyl-2-oxo-3-pyridyl)amino]-2-[4-(trifluoromethoxy)phenyl]-7,8-dihydro-5H-pyrido[3,4-d]pyridazin-1-one] as the molecule, how does the pIC50 read?
A: 7.15

Q: With `CC(=O)N1CCc2c(Nc3cncn(C)c3=O)nn(-c3ccc(OC(F)(F)F)cc3)c(=O)c2C1` [Example 150, 6-Acetyl-1-[(1-methyl-6-oxo-pyrimidin-5-yl)amino]-3-[4-(trifluoromethoxy)phenyl]-7,8-dihydro-5H-pyrido[3,4-d]pyridazin-4-one] as the molecule, how does the pIC50 read?
A: 6.98

Q: How did the pIC50 turn out when `CC(=O)N1CCc2c(c(Nc3cncn(C)c3=O)nn(-c3ccc(OC(F)(F)F)cc3)c2=O)C1` [Example 151, 6-Acetyl-4-[(1-methyl-6-oxo-pyrimidin-5-yl)amino]-2-[4-(trifluoromethoxy)phenyl]-7,8-dihydro-5H-pyrido[3,4-d]pyridazin-1-one] was run?
A: 6.43

Q: How did the pIC50 turn out when `COC(=O)N1CCc2c(c(Nc3cccn(C)c3=O)nn(-c3ccc(OC(F)(F)F)cc3)c2=O)C1` [Example 152, Methyl 4-[(1-methyl-2-oxo-3-pyridyl)amino]-1-oxo-2-[4-(trifluoromethoxy)phenyl]-7,8-dihydro-5H-pyrido[3,4-d]pyridazine-6-carboxylate] was run?
A: 7.49

Q: How did the pIC50 turn out when `COC(=O)N1CCc2c(Nc3cccn(C)c3=O)nn(-c3ccc(OC(F)(F)F)cc3)c(=O)c2C1` [Example 153, Methyl 1-[(1-methyl-2-oxo-3-pyridyl)amino]-4-oxo-3-[4-(trifluoromethoxy)phenyl]-7,8-dihydro-5H-pyrido[3,4-d]pyridazine-6-carboxylate] was run?
A: 7.21

Q: How did the pIC50 turn out when `Cn1cccc(Nc2nn(-c3ccc(OC(F)(F)F)cc3)c(=O)c3c2CN(C=O)CC3)c1=O` [Example 154, 4-[(1-Methyl-2-oxo-3-pyridyl)amino]-1-oxo-2-[4-(trifluoromethoxy)phenyl]-7,8-dihydro-5H-pyrido[3,4-d]pyridazine-6-carbaldehyde] was run?
A: 6.84

Q: How did the pIC50 turn out when `Cn1cccc(Nc2nn(-c3ccc(OC(F)(F)F)cc3)c(=O)c3c2CCN(C=O)C3)c1=O` [Example 155, 1-[(1-Methyl-2-oxo-3-pyridyl)amino]-4-oxo-3-[4-(trifluoromethoxy)phenyl]-7,8-dihydro-5H-pyrido[3,4-d]pyridazine-6-carbaldehyde] was run?
A: 7.07

Q: `Cn1cccc(Nc2nn(-c3ccc(OC(F)(F)F)cc3)c(=O)c3c2CCN(S(C)(=O)=O)C3)c1=O` [Example 156, 1-[(1-Methyl-2-oxo-3-pyridyl)amino]-6-methylsulfonyl-3-[4-(trifluoromethoxy)phenyl]-7,8-dihydro-5H-pyrido[3,4-d]pyridazin-4-one] was tested. Which pIC50 did it give?
A: 6.58

Q: How did the pIC50 turn out when `Cn1cccc(Nc2nn(-c3ccc(OC(F)(F)F)cc3)c(=O)c3c2CN(S(C)(=O)=O)CC3)c1=O` [Example 157, 4-[(1-Methyl-2-oxo-3-pyridyl)amino]-6-methylsulfonyl-2-[4-(trifluoromethoxy)phenyl]-7,8-dihydro-5H-pyrido[3,4-d]pyridazin-1-one] was run?
A: 6.78

Q: How did the pIC50 turn out when `CCN1CCc2c(Nc3cccn(C)c3=O)nn(-c3ccc(OC(F)(F)F)cc3)c(=O)c2C1` [Example 158, 6-Ethyl-1-[(1-methyl-2-oxo-3-pyridyl)amino]-3-[4-(trifluoromethoxy)phenyl]-7,8-dihydro-5H-pyrido[3,4-d]pyridazin-4-one] was run?
A: 6.98

Q: How did the pIC50 turn out when `CC(C)N1CCc2c(Nc3cccn(C)c3=O)nn(-c3ccc(OC(F)(F)F)cc3)c(=O)c2C1` [Example 159, 6-Isopropyl-1-[(1-methyl-2-oxo-3-pyridyl)amino]-3-[4-(trifluoromethoxy)phenyl]-7,8-dihydro-5H-pyrido[3,4-d]pyridazin-4-one] was run?
A: 6.73

Q: `CNC(=O)N1CCc2c(c(Nc3cccn(C)c3=O)nn(-c3ccc(OC(F)(F)F)cc3)c2=O)C1` [Example 160, N-Methyl-4-[(1-methyl-2-oxo-3-pyridyl)amino]-1-oxo-2-[4-(trifluoromethoxy)phenyl]-7,8-dihydro-5H-pyrido[3,4-d]pyridazine-6-carboxamide] was tested. Which pIC50 did it give?
A: 7.07

Q: `CNC(=O)N1CCc2c(Nc3cccn(C)c3=O)nn(-c3ccc(OC(F)(F)F)cc3)c(=O)c2C1` [Example 161, N-Methyl-1-[(1-methyl-2-oxo-3-pyridyl)amino]-4-oxo-3-[4-(trifluoromethoxy)phenyl]-7,8-dihydro-5H-pyrido[3,4-d]pyridazine-6-carboxamide] was tested. Which pIC50 did it give?
A: 6.95

Q: How did the pIC50 turn out when `Cn1cccc(Nc2nn(-c3ccc(C(C)(C)O)cc3)c(=O)c3ccccc23)c1=O` [Example 162, 2-[4-(1-Hydroxy-1-methyl-ethyl)phenyl]-4-[(1-methyl-2-oxo-3-pyridyl)amino]phthalazin-1-one] was run?
A: 5.85

Q: `O=c1c(Nc2nn(-c3ccc(OC(F)(F)F)cc3)c(=O)c3ccccc23)cccn1CCO` [Example 163, 4-[[1-(2-Hydroxyethyl)-2-oxo-3-pyridyl]amino]-2-[4-(trifluoromethoxy)phenyl]phthalazin-1-one] was tested. Which pIC50 did it give?
A: 7.21

Q: `Cn1cccc(Nc2nn(-c3ccc(OC(F)(F)F)cc3)c(=O)c3c2CCC(O)C3)c1=O` (centres unmarked) [Example 164, 7-Hydroxy-4-[(1-methyl-2-oxo-3-pyridyl)amino]-2-[4-(trifluoromethoxy)phenyl]-5,6,7,8-tetrahydrophthalazin-1-one] was tested. Which pIC50 did it give?
A: 7.34

Q: How did the pIC50 turn out when `Cn1cccc(Nc2nn(-c3ccc(OC(F)(F)F)cc3)c(=O)c3c2CC(O)CC3)c1=O` (centres unmarked) [Example 165, 6-hydroxy-4-[(1-methyl-2-oxo-3-pyridyl)amino]-2-[4-(trifluoromethoxy)phenyl]-5,6,7,8-tetrahydrophthalazin-1-one] was run?
A: 7.62

Q: How did the pIC50 turn out when `CC(O)(CN)Cn1cccc(Nc2nn(-c3ccc(OC(F)(F)F)cc3)c(=O)c3c2CCC3)c1=O` (centres unmarked) [Example 166, 1-[[1-(3-Amino-2-hydroxy-2-methyl-propyl)-2-oxo-3-pyridyl]amino]-3-[4-(trifluoromethoxy)phenyl]-6,7-dihydro-5H-cyclopenta[d]pyridazin-4-one] was run?
A: 6.97

Q: How did the pIC50 turn out when `O=C(Cn1cccc(Nc2nn(-c3ccc(OC(F)(F)F)cc3)c(=O)c3c2CCC3)c1=O)N1CCNCC1` [Example 167, 1-[[2-Oxo-1-(2-oxo-2-piperazin-1-yl-ethyl)-3-pyridyl]amino]-3-[4-(trifluoromethoxy)phenyl]-6,7-dihydro-5H-cyclopenta[d]pyridazin-4-one] was run?
A: 6.83

Q: With `O=c1c(Nc2nn(-c3ccc(OC(F)(F)F)cc3)c(=O)c3c2CCC3)cccn1CCNC1COC1` [Example 168, 1-[[1-[2-(Oxetan-3-ylamino)ethyl]-2-oxo-3-pyridyl]amino]-3-[4-(trifluoromethoxy)phenyl]-6,7-dihydro-5H-cyclopenta[d]pyridazin-4-one] as the molecule, how does the pIC50 read?
A: 7.62

From US10597380B2, “Pyridazinone-based broad spectrum anti-influenza inhibitors” (Hoffmann-La Roche Inc., priority 2017, dated 2020)
